According to US20260258084A1, “New Peptides as Selective IL-23 Receptor Antagonists” (Sanofi, priority 2022, published 2026):
Starred links: 1 amine or outer side, 2 acyl side, 3 side chain; linkers in the order of their positions; H or OH if unused. Positions of bridges follow the written chain, without caps; N, C: chain ends. Non-standard residues stand in square brackets, D forms with d. Residues, ends and D or L forms follow the SMILES beside them. *: point of attachment. X5 = CN(C(=O)CCC(=O)[*:3])[C@@H](CS[*:2])C(=O)[*:1]; X6 = O=C(CCC(=O)[*:3])N[C@@H](CS[*:2])C(=O)[*:1]; Trp(7-Me) = Cc1cccc2c(C[C@H](N)C(=O)O)c[nH]c12; X1 = O=C(CCCCN[*:3])N[C@@H](CS[*:2])C(=O)[*:1]; 2Nal = N[C@@H](Cc1ccc2ccccc2c1)C(=O)O; Palmitoyl = CCCCCCCCCCCCCCCC(=O)*; 3Pal = N[C@@H](Cc1cccnc1)C(=O)O; Lys(Me) = CNCCCC[C@H](N)C(=O)O; αMeL = CC(C)C[C@](C)(N)C(=O)O; Suc = O=C(CCC(=O)[*:2])[*:1]; αMeK = C[C@](N)(CCCCN)C(=O)O; Thp = NC1(C(=O)O)CCOCC1; Me2NCH2CH2 = CN(C)CC*; Aib = CC(C)(N)C(=O)O; Ava = NCCCCC(=O)O; Sar = CNCC(=O)O

Key:
Pepsin = test system: T1, Pepsin; experiment: Protease stability in simulated gastric fluid (Pepsin-SGF, FaSSGF); type: in vitro ADME; settings: simulated gastric fluid with pepsin (Pepsin-SGF), 60 min, 1 μM peptide, 37° C., read-out: FaSSGF 60 (min), remaining percent of peptide
T1 construct: purchased Merck Millipore
Procedure, shortened: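 LCMS/MS peak areas, normalised to the time-0 sample as 100%, give percent remaining. Conditions: 37° C incubation of 1 μM final peptide in simulated gastric fluid with pepsin; ethanol/0.1% HCOOH quench at 0, 60, 120, 240 min.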

Pancreatin = experiment: Protease stability in simulated intestinal fluid (Pancreatin-SIF, FaSSIF); type: in vitro ADME; settings: 1 μM peptide, 37° C.; for remaining at 1 h, 1 µM: 60 min, read-out: FaSSIF 60 (min), remaining percent of peptide; for remaining at 2 h, 1 µM: 120 min, read-out: FaSSIF 120 (min), remaining percent of peptide; for remaining at 4 h, 1 µM: 240 min, read-out: FaSSIF 240 (min), remaining percent of peptide
Procedure, shortened: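 LC-MS/MS peak areas at 0, 60, 120 and 240 min, normalised to time 0 as 100%, give percent remaining. Reactions used 1 μM final peptide at 37° C in pancreatin-SIF (1 mg pancreatin in 10 mL SIF concentrate) and were stopped with ethanol containing 0.1% HCOOH.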

[1] = biological target: T2, human interleukin-23 receptor (recombinant human IL-23R-Fc chimera) (Homo sapiens, UniProt Q5VWK5); experiment: Human ELISA IL23/IL23R (assay for specific human IL23R antagonists); type: binding; settings: Table 10; read-out: Human ELISA IL23/IL23R IC50
T2 construct: Fc (IgG Fc fusion)
Procedure, shortened: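 Competition format: peptide dilutions compete for IL23R-Fc chimera (0.1 μg/ml final, 60 min, room temperature) binding to immobilized human IL23 coated at […] overnight at 4 °C. Read-out is fluorogenic HRP signal from goat anti-hu-IgG1 detecting captured receptor.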

[2] = test system: IL-23 induced STAT3 signaling in HEK-Blue™ IL-23 cells; experiment: IL-23 induced STAT3 signaling in HEK-Blue IL-23 cells (SEAP reporter); type: cell-based; settings: human IL23 0.25 ng/ml, read-out: pSTAT3
Procedure, shortened: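 Secreted SEAP, read at OD 620-655 nm after 45 min QUANTI-Blue development, reports STAT3 activation. Beforehand, cells were exposed to peptide dilutions for 60 min at 37 °C and then to 0.25 ng/ml final human IL-23 overnight, at 10,000 cells/well.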

remaining at 1 h, 1 µM (Pepsin) [%]	remaining at 1 h, 1 µM (Pancreatin) [%]	remaining at 2 h, 1 µM (Pancreatin) [%]	remaining at 4 h, 1 µM (Pancreatin) [%]	IC50 [1] [nM]	SMILES	IC50 [2] [nM]
100	95	87	84	0.35	Cc1cccc2c(C[C@@H]3NC(=O)[C@H]([C@@H](C)O)NC(=O)[C@H](CC(N)=O)NC(=O)[C@@H]4CSSC[C@H](NC(=O)[C@H](CCC(N)=O)NC3=O)C(=O)N[C@@H](Cc3ccc(OCCN(C)C)cc3)C(=O)N[C@@H](Cc3ccc5ccccc5c3)C(=O)NC(C)(C)C(=O)N[C@H](C(=O)N[C@@H](CC(N)=O)C(=O)N[C@@H](Cc3cccnc3)C(=O)N(C)CC(N)=O)CCC(=O)NCCCCC(=O)N4)c[nH]c12 [compound 62] ([Ava]CNT[Trp(7-Me)]QCY(Me2NCH2CH2)[2Nal][Aib]EN[3Pal][Sar]-NH2; disulfide 2-7; lactam N-11)	0.2
91	96	92	92	0.27	CC(=O)NCCCC[C@@H]1NC(=O)[C@H](Cc2c[nH]c3c(C)cccc23)NC(=O)[C@H]([C@@H](C)O)NC(=O)[C@H](CC(N)=O)NC(=O)[C@@H]2CSSC[C@H](NC1=O)C(=O)N[C@@H](Cc1ccc(OCCN(C)C)cc1)C(=O)N[C@@H](Cc1ccc3ccccc3c1)C(=O)NC(C)(C)C(=O)N[C@H](C(=O)N[C@@H](CC(N)=O)C(=O)N[C@@H](Cc1cccnc1)C(=O)N(C)CC(N)=O)CCC(=O)NCCCCC(=O)N2 [compound 64] ([Ava]CNT[Trp(7-Me)]K(Ac)CY(Me2NCH2CH2)[2Nal][Aib]EN[3Pal][Sar]-NH2; disulfide 2-7; lactam N-11)	0.22
102	99	98	98	2.27	CCCCCCCCCCCCCCCC(=O)NCCCC[C@]1(C)NC(=O)[C@H](Cc2ccc3ccccc3c2)NC(=O)[C@H](Cc2ccc(OCCN(C)C)cc2)NC(=O)[C@@H]2CSSC[C@H](NC(=O)CCCCNC(=O)CC[C@@H](C(=O)N[C@@H](CC(N)=O)C(=O)N[C@@H](Cc3cccnc3)C(=O)N(C)CC(N)=O)NC1=O)C(=O)NCCCC[C@H](NC(C)=O)C(=O)N[C@@H](Cc1c[nH]c3c(C)cccc13)C(=O)N[C@@H](CCCCNC(C)=O)C(=O)N2 [compound 67] (Ac-K[Trp(7-Me)]K(Ac)CY(Me2NCH2CH2)[2Nal][αMeK](Palmitoyl)EN[3Pal][Sar]-NH2; linker 1-4-8 via X1)	22.6
39	91	91	86	1.48	CC(=O)N[C@H]1CCCCNC(=O)[C@@H]2CSSC[C@H](NC(=O)[C@H](CC(C)C)NC(=O)[C@H](Cc3c[nH]c4c(C)cccc34)NC1=O)C(=O)N[C@@H](Cc1ccc(OCCN(C)C)cc1)C(=O)N[C@@H](Cc1ccc3ccccc3c1)C(=O)N[C@@](C)(CC(C)C)C(=O)N[C@H](C(=O)N[C@@H](CC(N)=O)C(=O)N[C@@H](Cc1cccnc1)C(=O)N(C)CC(N)=O)CCCCN(C)C(=O)CCC(=O)N2 [compound 68] (Ac-K[Trp(7-Me)]LCY(Me2NCH2CH2)[2Nal][αMeL][Lys(Me)]N[3Pal][Sar]-NH2; linker 1-4-8 via X6)	2.69
79	97	89	83	2.17	CC(=O)N[C@H]1CCCCNC(=O)[C@@H]2CSSC[C@H](NC(=O)[C@H](CC(C)C)NC(=O)[C@H](Cc3c[nH]c4c(C)cccc34)NC1=O)C(=O)N[C@@H](Cc1ccc(OCCN(C)C)cc1)C(=O)N[C@@H](Cc1ccc3ccccc3c1)C(=O)N[C@@](C)(CC(C)C)C(=O)N[C@H](C(=O)N[C@@H](CC(N)=O)C(=O)N[C@@H](Cc1cccnc1)C(=O)N(C)CC(N)=O)CCCCN(C)C(=O)CCC(=O)N2C [compound 69] (Ac-K[Trp(7-Me)]LCY(Me2NCH2CH2)[2Nal][αMeL][Lys(Me)]N[3Pal][Sar]-NH2; linker 1-4-8 via X5)	3.07
78	94	90	87	2.07	CC(=O)N[C@H]1CCCCNC(=O)[C@@H]2CSSC[C@H](NC(=O)[C@H](CC(C)C)NC(=O)[C@H](Cc3c[nH]c4c(C)cccc34)NC1=O)C(=O)N[C@@H](Cc1ccc(OCCN(C)C)cc1)C(=O)N[C@@H](Cc1ccc3ccccc3c1)C(=O)N[C@@](C)(CC(C)C)C(=O)N[C@H](C(=O)N[C@@H](C)C(=O)N[C@@H](Cc1cccnc1)C(=O)N(C)CC(N)=O)CCCCN(C)C(=O)CCC(=O)N2C [compound 70] (Ac-K[Trp(7-Me)]LCY(Me2NCH2CH2)[2Nal][αMeL][Lys(Me)]A[3Pal][Sar]-NH2; linker 1-4-8 via X5)	3.94
92	91	90	83	0.59	CC(=O)NCCCC[C@@H]1NC(=O)[C@H](Cc2c[nH]c3c(C)cccc23)NC(=O)[C@@H](NC(C)=O)CCCCNC(=O)[C@@H]2CSSC[C@H](NC1=O)C(=O)N[C@@H](Cc1ccc(OCCN(C)C)cc1)C(=O)N[C@@H](Cc1ccc3ccccc3c1)C(=O)NC(C)(C)C(=O)N[C@H](C(=O)N[C@@H](CC(N)=O)C(=O)N[C@@H](Cc1cccnc1)C(=O)N(C)CC(N)=O)CCC(=O)NCCCCC(=O)N2 [compound 72] (Ac-K[Trp(7-Me)]K(Ac)CY(Me2NCH2CH2)[2Nal][Aib]EN[3Pal][Sar]-NH2; linker 1-4-8 via X1)	0.12
87	82	81	77	0.58	CC(=O)NCCCC[C@@H]1NC(=O)[C@H](Cc2c[nH]c3c(C)cccc23)NC(=O)[C@@H](NC(C)=O)CCCCNC(=O)[C@@H]2CSSC[C@H](NC1=O)C(=O)N[C@@H](Cc1ccc(OCCN(C)C)cc1)C(=O)N[C@@H](Cc1ccc3ccccc3c1)C(=O)N[C@@](C)(CC(C)C)C(=O)N[C@H](C(=O)N[C@@H](CC(N)=O)C(=O)N[C@@H](Cc1cccnc1)C(=O)N(C)CC(N)=O)CCC(=O)NCCCCC(=O)N2 [compound 73] (Ac-K[Trp(7-Me)]K(Ac)CY(Me2NCH2CH2)[2Nal][αMeL]EN[3Pal][Sar]-NH2; linker 1-4-8 via X1)	0.1
97	82	77	74	0.3	CC(=O)NCCCC[C@@H]1NC(=O)[C@H](Cc2c[nH]c3c(C)cccc23)NC(=O)[C@H]([C@@H](C)O)NC(=O)[C@H](CC(N)=O)NC(=O)[C@@H]2CSSC[C@H](NC1=O)C(=O)N[C@@H](Cc1ccc(OCCN(C)C)cc1)C(=O)N[C@@H](Cc1ccc3ccccc3c1)C(=O)NC1(CCOCC1)C(=O)N[C@H](C(=O)N[C@@H](CC(N)=O)C(=O)N[C@@H](Cc1cccnc1)C(=O)N(C)CC(N)=O)CCCCNC(=O)CCC(=O)N2 [compound 102] (CNT[Trp(7-Me)]K(Ac)CY(Me2NCH2CH2)[2Nal][Thp]KN[3Pal][Sar]-NH2; disulfide 1-6; linker N-10 via Suc)	0.09
89	75	73	67	0.56	CC(=O)NCCCC[C@@H]1NC(=O)[C@H](Cc2c[nH]c3c(C)cccc23)NC(=O)[C@H]([C@@H](C)O)NC(=O)[C@H](CC(N)=O)NC(=O)[C@@H]2CSSC[C@H](NC1=O)C(=O)N[C@@H](Cc1ccc(OCCN(C)C)cc1)C(=O)N[C@@H](Cc1ccc3ccccc3c1)C(=O)N[C@@](C)(CC(C)C)C(=O)N[C@H](C(=O)N[C@@H](CC(N)=O)C(=O)N[C@@H](Cc1cccnc1)C(=O)N(C)CC(N)=O)CCCCNC(=O)CCC(=O)N2 [compound 103] (CNT[Trp(7-Me)]K(Ac)CY(Me2NCH2CH2)[2Nal][αMeL]KN[3Pal][Sar]-NH2; disulfide 1-6; linker N-10 via Suc)	0.11
100	80	80	76	0.64	CC(=O)NCCCC[C@@H]1NC(=O)[C@H](Cc2c[nH]c3c(C)cccc23)NC(=O)[C@@H](NC(C)=O)CCCCNC(=O)[C@@H]2CSSC[C@H](NC1=O)C(=O)N[C@@H](Cc1ccc(OCCN(C)C)cc1)C(=O)N[C@@H](Cc1ccc3ccccc3c1)C(=O)NC(C)(C)C(=O)N[C@H](C(=O)N[C@@H](CC(N)=O)C(=O)N[C@@H](Cc1cccnc1)C(=O)N(C)CC(N)=O)CCCCNC(=O)CCC(=O)N2 [compound 104] (Ac-K[Trp(7-Me)]K(Ac)CY(Me2NCH2CH2)[2Nal][Aib]KN[3Pal][Sar]-NH2; linker 1-4-8 via X6)	0.1
